Results from PubChem BioAssay AID248 (DTP/NCI, 2004).
Several values for one entry are separate records, joined by “and”; a condition that tells them apart may be missing. Equal values may be shown once. Toxic doses and inconclusive results are not listed. No stated cut-off is given here; in the data, active means T/C of 150% or more; inactive means T/C below 125%.

Tested on: L1210 leukemia ip in BDF1 mice, survival T/C
Assay: NCI In Vivo Anticancer Drug Screen. Data for tumor model L1210 Leukemia (intraperitoneal) in B6D2F1 (BDF1) mice
Details: endpoint: mean survival time, higher = longer survival
In short: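 Transplantable tumor model; survival measured in treated vs vehicle control mice. Value = treated/control.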

[1] = dose: 100.0 mg/kg/injection, schedule: Q01DX001 (ip), vehicle: saline
[2] = dose: 100.0 mg/kg/injection, schedule: Q01DX009 (ip), vehicle: saline
[3] = dose: 200.0 mg/kg/injection, schedule: Q01DX001 (ip), vehicle: saline
[4] = dose: 400.0 mg/kg/injection, schedule: Q01DX001 (ip), vehicle: saline
[5] = dose: 100.0 mg/kg/injection, schedule: Q04DX003 (ip), vehicle: Klucel (hydroxypropylcellulose) (HPC)
[6] = dose: 100.0 mg/kg/injection, schedule: Q01DX009 (ip), vehicle: saline with Tween-80
[7] = dose: 200.0 mg/kg/injection, schedule: Q01DX009 (ip), vehicle: saline with Tween-80
[8] = dose: 50.0 mg/kg/injection, schedule: Q01DX009 (ip), vehicle: saline with Tween-80
[9] = dose: 50.0 mg/kg/injection, schedule: Q01DX001 (ip), vehicle: carboxymethylcellulose (CMC)
[10] = dose: 100.0 mg/kg/injection, schedule: Q01DX001 (ip), vehicle: carboxymethylcellulose (CMC)
[11] = dose: 200.0 mg/kg/injection, schedule: Q01DX001 (ip), vehicle: carboxymethylcellulose (CMC)
[12] = dose: 400.0 mg/kg/injection, schedule: Q01DX001 (ip), vehicle: carboxymethylcellulose (CMC)
[13] = dose: 100.0 mg/kg/injection, schedule: Q04DX002 (ip), vehicle: saline
[14] = dose: 200.0 mg/kg/injection, schedule: Q04DX002 (ip), vehicle: saline
[15] = dose: 400.0 mg/kg/injection, schedule: Q04DX002 (ip), vehicle: saline

Measured: T/C

CCOP(=O)(OCC)N1C(C)C1c1ccccc1 (stereo unspecified)
inactive: dose: 25.0 mg/kg/injection, schedule: Q04DX003 (sc), vehicle: carboxymethylcellulose (CMC) 100 % of control | dose: 50.0 mg/kg/injection, schedule: Q04DX003 (sc), vehicle: carboxymethylcellulose (CMC) 104 % of control | dose: 100.0 mg/kg/injection, schedule: Q04DX003 (sc), vehicle: carboxymethylcellulose (CMC) 112 % of control

O=C(C=C(C(F)(F)F)C(F)(F)F)c1ccccc1
inactive: [1] 100 % of control | [2] 91 % of control | [3] 94 % of control | dose: 200.0 mg/kg/injection, schedule: Q01DX009 (ip), vehicle: saline 100 % of control | [4] 109 % of control

Cc1ccc(NC(=O)Nc2onc(C)c2C)c([N+](=O)[O-])c1
inactive: dose: 25.0 mg/kg/injection, schedule: Q04DX003 (ip), vehicle: Klucel (hydroxypropylcellulose) (HPC) 93 % of control | dose: 50.0 mg/kg/injection, schedule: Q04DX003 (ip), vehicle: Klucel (hydroxypropylcellulose) (HPC) 93 % of control | [5] 93 % of control and 88 % of control

O=[N+]([O-])c1cccc(/C=C/CCOc2ccccc2)c1
inactive: dose: 100.0 mg/kg/injection, schedule: Q01DX009 (sc), vehicle: olive oil, sesame oil, peanut oil 97 % of control | dose: 100.0 mg/kg/injection, schedule: Q04DX003 (sc), vehicle: olive oil, sesame oil, peanut oil 101 % of control | dose: 200.0 mg/kg/injection, schedule: Q01DX009 (sc), vehicle: olive oil, sesame oil, peanut oil 114 % of control | dose: 200.0 mg/kg/injection, schedule: Q04DX003 (sc), vehicle: olive oil, sesame oil, peanut oil 100 % of control | dose: 400.0 mg/kg/injection, schedule: Q01DX009 (sc), vehicle: olive oil, sesame oil, peanut oil 109 % of control | dose: 400.0 mg/kg/injection, schedule: Q04DX003 (sc), vehicle: olive oil, sesame oil, peanut oil 103 % of control

COC(=O)c1cc(NC(=O)Nc2cccc(C(F)(F)F)c2)cc(C(=O)OC)c1
inactive: [6] 100 % of control | [7] 92 % of control | dose: 400.0 mg/kg/injection, schedule: Q01DX009 (ip), vehicle: saline with Tween-80 96 % of control

NCC(OCCCc1ccccc1)C(Cl)(Cl)Cl (stereo unspecified)
inactive: dose: 12.5 mg/kg/injection, schedule: Q04DX003 (ip), vehicle: saline with Tween-80 105 % of control | dose: 25.0 mg/kg/injection, schedule: Q01DX009 (ip), vehicle: saline with Tween-80 105 % of control | dose: 25.0 mg/kg/injection, schedule: Q04DX003 (ip), vehicle: saline with Tween-80 105 % of control | [8] 113 % of control | dose: 50.0 mg/kg/injection, schedule: Q04DX003 (ip), vehicle: saline with Tween-80 100 % of control

Nc1nc2nc(-c3ccccc3)nc(N)c2nc1-c1ccc(N(CCCl)CCCl)cc1
inactive: [9] 98 % of control | [10] 95 % of control | [11] 101 % of control | [12] 98 % of control

CCNC(=O)NCc1cc(C)ccc1C
inactive: dose: 100.0 mg/kg/injection, schedule: Q04DX002 (ip), vehicle: Klucel (hydroxypropylcellulose) (HPC) 111 % of control | dose: 200.0 mg/kg/injection, schedule: Q04DX002 (ip), vehicle: Klucel (hydroxypropylcellulose) (HPC) 108 % of control | dose: 400.0 mg/kg/injection, schedule: Q04DX002 (ip), vehicle: Klucel (hydroxypropylcellulose) (HPC) 108 % of control

CCCCCCCCCCC(=O)N1CCCCC1
inactive: [13] 100 % of control | [14] 96 % of control | [15] 96 % of control

COC(=O)c1cc(NC(=O)CC(=O)c2cccc(N)c2)cc(C(=O)OC)c1
inactive: [5] 104 % of control | dose: 200.0 mg/kg/injection, schedule: Q04DX003 (ip), vehicle: Klucel (hydroxypropylcellulose) (HPC) 96 % of control | dose: 400.0 mg/kg/injection, schedule: Q04DX003 (ip), vehicle: Klucel (hydroxypropylcellulose) (HPC) 94 % of control

NC(=O)NOCc1cscn1
inactive: [1] 95 % of control | [3] 97 % of control | [4] 97 % of control

OC(c1ccccc1)c1ccccc1 (tested in a mixture with another compound)
inactive: dose: 2.5 mg/kg/injection, schedule: Q01DX009 (ip), vehicle: acetone 107 % of control | dose: 5.0 mg/kg/injection, schedule: Q01DX009 (ip), vehicle: acetone 105 % of control | dose: 10.0 mg/kg/injection, schedule: Q01DX001 (ip), vehicle: saline 93 % of control | dose: 10.0 mg/kg/injection, schedule: Q01DX009 (ip), vehicle: acetone 98 % of control | dose: 20.0 mg/kg/injection, schedule: Q01DX001 (ip), vehicle: saline 88 % of control

O=[As]1(c2cccc3ccccc23)c2ccccc2Cc2ccccc21
inactive: dose: 83.0 mg/kg/injection, schedule: Q01DX Z (ip), vehicle: methylcellulose (MC) 86 % of control | dose: 125.0 mg/kg/injection, schedule: Q01DX Z (ip), vehicle: methylcellulose (MC) 86 % of control

CCN(CC)CCCC(C)Nc1ccnc2cc(C(F)(F)F)ccc12 (stereo unspecified)
inactive: dose: 5.0 mg/kg/injection, schedule: Q01DX001 (ip), vehicle: carboxymethylcellulose (CMC) 104 % of control | dose: 10.0 mg/kg/injection, schedule: Q01DX001 (ip), vehicle: carboxymethylcellulose (CMC) 106 % of control | dose: 20.0 mg/kg/injection, schedule: Q01DX001 (ip), vehicle: carboxymethylcellulose (CMC) 90 % of control | dose: 40.0 mg/kg/injection, schedule: Q01DX001 (ip), vehicle: carboxymethylcellulose (CMC) 104 % of control

NCC1OC(n2cnc3c(N)ncnc32)C(O)C1O (stereo unspecified)
inactive: [9] 98 % of control | [10] 102 % of control | [11] 107 % of control | [12] 109 % of control

Cc1ccc(CC2=NC(C)(C)CC(C)O2)cc1 (stereo unspecified)
inactive: [13] 101 % of control | [14] 93 % of control | [15] 106 % of control

COCn1cnc2c(ccn2C2OC(CO)C(O)C2O)c1=O (stereo unspecified)
inactive: dose: 50.0 mg/kg/injection, schedule: Q01DX001 (ip), vehicle: saline 104 % of control | [1] 93 % of control | [3] 106 % of control | [4] 106 % of control

Clc1cc[c]([Sn]([Cl])([c]2ccc(Cl)cc2)[c]2ccc(Cl)cc2)cc1
inactive: dose: 1.56 mg/kg/injection, schedule: Q01DX009 (ip), vehicle: saline 98 % of control | dose: 3.12 mg/kg/injection, schedule: Q01DX009 (ip), vehicle: saline 106 % of control

Cc1c(Cl)c(CCl)c(Cl)c(CCl)c1Cl
inactive: dose: 100.0 mg/kg/injection, schedule: Q01DX001 (ip), vehicle: Klucel (hydroxypropylcellulose) (HPC) 94 % of control | dose: 200.0 mg/kg/injection, schedule: Q01DX001 (ip), vehicle: Klucel (hydroxypropylcellulose) (HPC) 92 % of control | dose: 400.0 mg/kg/injection, schedule: Q01DX001 (ip), vehicle: Klucel (hydroxypropylcellulose) (HPC) 89 % of control

O=C(OC1CCC1)c1ccc(N=Nc2ccccc2)cc1
inactive: dose: 75.0 mg/kg/injection, schedule: Q04DX002 (ip), vehicle: Klucel (hydroxypropylcellulose) (HPC) 102 % of control | dose: 150.0 mg/kg/injection, schedule: Q04DX002 (ip), vehicle: Klucel (hydroxypropylcellulose) (HPC) 102 % of control | dose: 300.0 mg/kg/injection, schedule: Q04DX002 (ip), vehicle: Klucel (hydroxypropylcellulose) (HPC) 86 % of control

OCCN1CCN(Cc2cccc3ccccc23)CC1
inactive: dose: 25.0 mg/kg/injection, schedule: Q01DX009 (ip), vehicle: saline 112 % of control | dose: 25.0 mg/kg/injection, schedule: Q04DX003 (ip), vehicle: saline 101 % of control | dose: 50.0 mg/kg/injection, schedule: Q01DX009 (ip), vehicle: saline 98 % of control | dose: 50.0 mg/kg/injection, schedule: Q04DX003 (ip), vehicle: saline 102 % of control | [1] 103 % of control | [2] 102 % of control | dose: 100.0 mg/kg/injection, schedule: Q04DX003 (ip), vehicle: saline 98 % of control

Cc1c(C(=O)O)nnn1-c1ccccc1
inactive: dose: 75.0 mg/kg/injection, schedule: Q01DX001 (ip), vehicle: saline 97 % of control | dose: 150.0 mg/kg/injection, schedule: Q01DX001 (ip), vehicle: saline 96 % of control

CC(=O)C(c1ccccc1)N(C)C(=O)c1ccccc1 (stereo unspecified)
inactive: dose: 100.0 mg/kg/injection, schedule: Q04DX003 (ip), vehicle: acetone 93 % of control | dose: 200.0 mg/kg/injection, schedule: Q04DX003 (ip), vehicle: acetone 86 % of control | dose: 400.0 mg/kg/injection, schedule: Q04DX003 (ip), vehicle: acetone 89 % of control

CN(C)N=Nc1c(Cl)cc(Cl)cc1Cl
inactive: [8] 107 % of control | [6] 100 % of control | [7] 107 % of control
